The values below come from patent US20130090320A1, “METHOD OF TREATING PROSTATE CANCER” (NIIKI PHARMA INC., priority 2010, published 2013).

The subject of assay [1] is LNCaP cell line. The assay is described as follows: Docetaxel IC50 in LNCaP from published literature. It counts as cell-based, human. Particulars: ratio of literature docetaxel IC50 in LNCaP to IC50 in PC-3. The protocol:
In addition, the IC50 values of docetaxel in the LNCaP and PC-3 cell lines were obtained from published literature. The ratios of IC50 values of sodium trans-[tetrachlorobis(1H-indazole)ruthenate(III)] in a cell line sensitive to one of the other drugs and a cell line insensitive to the same drug were calculated. The results are shown in Table 1 below (“Test Drug” in the table denotes sodium trans-[tetrachlorobis(1H-indazole)ruthenate(III)]). […] See Domingo-Domenech et al., Clin. Cancer Res., 12(18):5578-5586 (2006); Blagosklonny et al., J. Urol. 163(3):1022-6 (2000). As such, sodium trans-[tetrachlorobis(1H-indazole)ruthenate(III)] is potentially effective in treating prostate cancer resistant to such other drugs.

The test system of assay [2] is LNCaP cell line. Particulars: Domingo-Domenech et al., Clin. Cancer Res. 2006; cited from earlier work.
A further assay deals with PC-3 cell line. Particulars: Domingo-Domenech et al., Clin. Cancer Res. 2006; cited from earlier work.
Assay [3] has as its system LNCaP clone FGC (prostate carcinoma). The protocol: (§1) To test the activities of sodium trans-[tetrachlorobis(1H-indazole)ruthenate(III)], ATCC's MTT Cell Proliferation Assay® was performed using human prostate cancer cell lines LNCaP clone FGC (prostate carcinoma) and PC-3 (Prostate carcinoma). Stock cultures were allowed to grow to 70-80% confluence for this study. The anti-proliferative activity of sodium trans-[tetrachlorobis(1H-indazole)[…]], against the indicated cell lines was evaluated in vitro using the ATCC's MTT Cell Proliferation Assay (Catalog No. 30-1010K). LNCaP clone FGC plates were seeded with 4,000 cells/well, and the cells were grown in RPMI 1640 medium containing 1% HEPES (1M solution), 1% sodium pyruvate, 1% glucose (45% solution), 10% heat-inactivated FBS and 1% penicillin/strep/glutamine. PC-3 plates were seeded with 6,000 cells/well, and the cells were grown in Ham's F12 medium containing 10% heat-inactivated FBS, and 1% penicillin/strep/glutamine. Cultures were maintained in a 37° C. humidified 5% CO2/95% air atmosphere. The cells were treated with sodium trans-[tetrachlorobis(1H-indazole)ruthenate(III)] at 1,000 μM, or a series of 4× dilutions thereof (250 μM, 62.5 μM, etc.). 100 μl of medium was removed from each well at 72 hours post-treatment and 10 μl MTT reagent was added to each well. […] The plates were left overnight at room temperature in the dark and was read on a plate reader using SoftMax® Pro (version 5.2, Molecular Devices).
(§2) The absorbance data was analyzed as follows: Absorbance values were converted to Percent of Control and plotted against test agent concentrations for IC50 calculations using SoftMax® Pro (version 5.2, Molecular Devices). […] Percent of Control values were calculated by dividing the absorbance values for each test well by the No Drug Control average (column 11 values; cells+vehicle control) and multiplying by 100. Plots of Compound Concentration versus Percent of Control were analyzed using the 4-parameter equation to obtain IC50 values and other parameters that describe the sigmoidal dose response curve. […]

Assay [4] deals with PC-3 (Prostate carcinoma). Particulars: PC-3 cell line, MTT, 72 hours post-treatment. How it is done: as §1, §2

A word on the IC50: it is the concentration at which inhibition is half-maximal.

Turning to `CC(=O)O[C@@]12CO[C@@H]1C[C@H](O)[C@@]1(C)C(=O)[C@H](O)C3=C(C)[C@@H](OC(=O)[C@H](O)[C@@H](NC(=O)OC(C)(C)C)c4ccccc4)C[C@@](O)([C@@H](OC(=O)c4ccccc4)[C@H]21)C3(C)C` [Docetaxel, docetaxel], the “IC50 Ratio (LNCaP/PC-3)” value in the assay on LNCaP cell line [1] is given as 12-20. For the same compound, the IC50 with LNCaP cell line [2] is 0.05 to 0.06 µM; in the assay with PC-3 cell line it was 0.0025 to 0.005 µM.
As to `[Cl][Ru-]([Cl])([Cl])[Cl].[Na+].c1ccc2[nH]ncc2c1.c1ccc2[nH]ncc2c1` [sodium trans-[tetrachlorobis(1H-indazole)ruthenate(III)]], the IC50 in assay [3] (LNCaP cell line, MTT, 72 hours post-treatment) was 17.3 µM; in assay [4], 41.8 µM. Also, in assay [3] (ratio of Test Drug IC50 in LNCaP to IC50 in PC-3), the “IC50 Ratio (LNCaP/PC-3)” value was 0.41.
